From patent US10342796B2, “Acrylanilide derivative, preparation method, and applications thereof in pharmacy” (Ancureall Pharmaceutical (Shanghai) Co., Ltd., priority 2015, dated 2019)

Columns and labels:
Test in all cases: Growth inhibition GI50 in vitro (CCK8/MTT, 72 h)
Assay type in all cases: cell-based, human
[1] = tested on: SK-BR-3 (Her2 amp); conditions: Homo sapiens, SK-BR-3; HER2 positive cell line; range of GI50; read-out: GI50 SK-BR-3
Protocol: Human lung adenocarcinoma cell line Calu-3 (ATCC) was cultured with 1×MEM complete medium (10% FBS, 1% double-antibiotics, 1% NEAA (Gibco), 2 mM glutamine and 1 mM of sodium pyruvate). Human breast cancer cell line SK-BR-3 was cultured with McCOY'S5A complete medium (10% FBS). Human colon cancer cell line SNU1040 (HER2 V777M positive) (ATCC) and human bronchoalveolar adenocarcinoma cell line NCI-H1781 (expressing HER2 exon 20 G776VC mutation) (ATCC) were cultured with 1×RPMI1640 complete medium (10% FBS), respectively.
The suspension cells were collected by centrifugation. The supernatant was discard and the cell pellet was resuspended and counted. Different cell concentrations (5˜10×10^4 cells/mL) were prepared according to the growth cycle of each cell line and then seeded on a 96-well plate (Corning), 100 μL/well. The cells were incubated over night at 37° C., 5% CO2. The compounds were added to the cells on the second day with 2 wells in parallel. The final concentration of organic solvent shall not exceed 1%. The cells were continually incubated for 72 h, and then subjected to MTT assay.
The present compounds and the reference compounds were dissolved with DMSO (Sigma), respectively. […] The storage concentration of compounds was 10 mM and kept at −20° C. They were diluted by 2 times or 10 times with serial dilution before using.
Dojindo CCK8 reagent kit was used as MTT assay. […] FC meter was used as microplate reader.
Adherent cell culture medium was discard and immediately replaced with fresh prepared medium which contains 10% CCK8 reagent (100 μL/well). For the suspension cells, CCK8 was directly added to 10% of the final concentration. The cells were continually incubated for 1˜4 h. When the color of control wells turned to dark yellow, the absorption value was measured at OD450 nm. The cell growth rate was calculated according to the following formula: cell growth rate (%)=100*(T−T0)/(C−T0), T=optical density of drug treatment cell well—optical density of blank control well; T0=optical density of cell well before drug treatment—optical density of blank control well; C=optical density of cell well of solvent control group—optical density of blank control well. […] The experiment was independently repeated 1˜3 times, and subject to biological statistical analysis.

[2] = tested on: N87 (HER2 Amp); conditions: Homo sapiens; HER2 positive cell line; range of GI50; read-out: GI50 N87
[3] = tested on: PC-9ER (EGFR delE746-A750/T790M); conditions: Homo sapiens, PC-9/ER; EGFR mutant cell line; range of GI50; read-out: GI50 PC9ER
[4] = tested on: H1975 (EGFR L858R/T790M); conditions: Homo sapiens, NCI-H1975; EGFR mutant cell line; range of GI50; read-out: GI50 H1975
[5] = tested on: PC-9 (EGFR dE746-A750); conditions: Homo sapiens; EGFR mutant cell line; range of GI50; read-out: GI50 PC-9
[6] = tested on: HCC827 (EGFR dE746-A750); conditions: Homo sapiens, HCC827; EGFR mutant cell line; range of GI50; read-out: GI50 HCC827
[7] = tested on: H460 (EGFR wt, Kras G61H); conditions: Homo sapiens, NCI-H460; EGFR wild type cell line; range of GI50; read-out: GI50 H460
[8] = tested on: A431 (EGFR WT, amplification and high expression); conditions: Homo sapiens, A-431; EGFR wild type cell line; range of GI50; read-out: GI50 A431
[9] = tested on: H1299 (EGFR wt, Nras Q61K); conditions: Homo sapiens, NCI-H1299; EGFR wild type cell line; range of GI50; read-out: GI50 H1299
[10] = tested on: A549 (EGFR WT); conditions: Homo sapiens, A549; EGFR wild type cell line; range of GI50; read-out: GI50 A549
[11] = tested on: AU565 (Her2 amp); conditions: Homo sapiens, AU565; HER2 positive cell line; range of GI50; read-out: GI50 AU-565

| GI50 [1] | GI50 [3] | GI50 [4] | GI50 [5] | GI50 [6] | GI50 [7] | GI50 [8] | GI50 [9] | GI50 [10] | Structure (SMILES) | GI50 [2] | GI50 [11] |
| --- | --- | --- | --- | --- | --- | --- | --- | --- | --- | --- | --- |
| 10 to 100 nM | 10 to 100 nM | 10 to 100 nM | 10 to 100 nM | 10 to 100 nM | > 1000 nM | 100 to 1000 nM | > 1000 nM | > 1000 nM | C=CC(=O)Nc1cc(Nc2ncnc(Nc3ccc(F)c(Cl)c3)n2)c(OC)cc1N(C)CCN(C)C [Compound 109, N-(5-(4-(3-chloro-4-fluoro-phenylamino)-[1,3,5]triazin-2-ylamino)-2-((2-dimethylamino-ethyl)-methyl-amino)-4-methoxyl-phenyl)-acrylamide] | 10 to 100 nM | 10 to 100 nM |
| 10 to 100 nM | < 10 nM | 10 to 100 nM | < 10 nM | < 10 nM | > 1000 nM | 100 to 1000 nM | > 1000 nM | > 1000 nM | C=CC(=O)Nc1cc(Nc2ncnc(Nc3cccc(Cl)c3F)n2)c(OC)cc1N(C)CCN(C)C [Compound 110, N-(5-(4-(3-chloro-2-fluoro-phenylamino)-[1,3,5]triazin-2-ylamino)-2-((2-dimethylamino-ethyl)-methyl-amino)-4-methoxyl-phenyl)-acrylamide] | < 10 nM | 10 to 100 nM |
| 100 to 1000 nM | < 10 nM | 10 to 100 nM | < 10 nM | < 10 nM | > 1000 nM | 100 to 1000 nM | > 1000 nM | > 1000 nM | C=CC(=O)Nc1cc(Nc2ncnc(Nc3cccc(C(F)(F)F)c3)n2)c(OC)cc1N(C)CCN(C)C [Compound 113, N-(5-(4-(3-trifluoromethyl-phenylamino)-[1,3,5]triazin-2-ylamino)-2-((2-dimethylamino-ethyl)-methyl-amino)-4-methoxyl-phenyl)-acrylamide] | 10 to 100 nM | 10 to 100 nM |
| < 10 nM | < 10 nM | < 10 nM | < 10 nM | < 10 nM | > 1000 nM | 10 to 100 nM | > 1000 nM | > 1000 nM | C=CC(=O)Nc1cc(Nc2cc(Nc3cccc(Br)c3)ncn2)c(OC)cc1N(C)CCN(C)C [Compound 133, N-(5-(6-(3-bromophenylamino)-pyrimidin-4-ylamino)-2-((2-dimethylamino-ethyl)-methyl-amino)-4-methoxyl-phenyl)-acrylamide] | < 10 nM | < 10 nM |
| 10 to 100 nM | 10 to 100 nM | 10 to 100 nM | < 10 nM | < 10 nM | > 1000 nM | 100 to 1000 nM | > 1000 nM | > 1000 nM | C=CC(=O)Nc1cc(Nc2cc(Nc3cccc(C(F)(F)F)c3)ncn2)c(OC)cc1N(C)CCN(C)C [Compound 134] | 10 to 100 nM | 10 to 100 nM |
| < 10 nM | < 10 nM | < 10 nM | < 10 nM | < 10 nM | > 1000 nM | 10 to 100 nM | > 1000 nM | > 1000 nM | C#Cc1cccc(Nc2cc(Nc3cc(NC(=O)C=C)c(N(C)CCN(C)C)cc3OC)ncn2)c1 [Compound 135, N-(5-(6-(3-alkynyl-phenylamino)-pyrimidin-4-ylamino)-2-((2-dimethylamino-ethyl)-methyl-amino)-4-methoxyl-phenyl)-acrylamide] | 10 to 100 nM | < 10 nM |
| < 10 nM | < 10 nM | 10 to 100 nM | < 10 nM | < 10 nM | > 1000 nM | 100 to 1000 nM | > 1000 nM | > 1000 nM | C=CC(=O)Nc1cc(Nc2cc(Nc3cc(F)cc(Br)c3)ncn2)c(OC)cc1N(C)CCN(C)C [Compound 139, N-(5-(6-(3-bromo-5-fluoro-phenylamino)-pyrimidin-4-ylamino)-2-((2-dimethylamino-ethyl)-methyl-amino)-4-methoxyl-phenyl)-acrylamide] | < 10 nM | < 10 nM |
| < 10 nM | < 10 nM | < 10 nM | < 10 nM | < 10 nM | > 1000 nM | 10 to 100 nM | > 1000 nM | > 1000 nM | C=CC(=O)Nc1cc(Nc2cc(Nc3ccc(F)c(Cl)c3)ncn2)c(OC)cc1N1CCC(N2CCOCC2)CC1 [Compound 143, N-(5-(6-(3-chloro-4-fluoro-phenylamino)-pyrimidin-4-ylamino)-4-methoxyl-2-(4-morpholin-4-yl-piperidin-1-yl)-phenyl)-acrylamide] | < 10 nM | < 10 nM |
| < 10 nM | < 10 nM | < 10 nM | < 10 nM | < 10 nM | > 1000 nM | 10 to 100 nM | > 1000 nM | > 1000 nM | C=CC(=O)Nc1cc(Nc2cc(Nc3ccc(F)c(Cl)c3)ncn2)c(OC)cc1N1CCCN(C)CC1 [Compound 144, N-(5-(6-(3-chloro-4-fluoro-phenylamino)-pyrimidin-4-ylamino)-2-(4-methyl-[1,4]diazepin-1-yl)-4-methoxyl-phenyl)-acrylamide] | < 10 nM | < 10 nM |
| 10 to 100 nM | < 10 nM | 10 to 100 nM | < 10 nM | < 10 nM | > 1000 nM | 10 to 100 nM | > 1000 nM | > 1000 nM | C=CC(=O)Nc1cc(Nc2cc(Nc3ccc(F)c(Cl)c3)ncn2)c(OC)cc1N1CCN(C)CC1 [Compound 145, N-(5-(6-(3-chloro-4-fluoro-phenylamino)-pyrimidin-4-ylamino)-4-methoxyl-2-(4-methyl-piperazin-1-yl)-phenyl)-acrylamide] | < 10 nM | 10 to 100 nM |
| < 10 nM | < 10 nM | < 10 nM | < 10 nM | < 10 nM | > 1000 nM | 10 to 100 nM | > 1000 nM | > 1000 nM | C=CC(=O)Nc1cc(Nc2cc(Nc3ccc(F)c(Cl)c3)ncn2)c(OC)cc1OCCN(C)C [Compound 148, N-(5-(6-(3-chloro-4-fluoro-phenylamino)-pyrimidin-4-ylamino)-2-(2-dimethylamino-ethoxyl)-4-methoxyl-phenyl)-acrylamide] | 10 to 100 nM | < 10 nM |
| < 10 nM | < 10 nM | < 10 nM | < 10 nM | < 10 nM | > 1000 nM | 10 to 100 nM | > 1000 nM | > 1000 nM | C=CC(=O)Nc1cc(Nc2cc(Nc3ccc(F)c(Cl)c3)ncn2)c(OC)cc1OCCN1CCN(C)CC1 [Compound 150, N-(5-(6-(3-chloro-4-fluoro-phenylamino)-pyrimidin-4-ylamino)-2-(2-(4-methyl-piperazin-lyl)-ethoxyl)-4-methoxyl-phenyl)-acrylamide] | 10 to 100 nM | 10 to 100 nM |
